Measurements taken from ChEMBL document CHEMBL1201862, “PubChem BioAssay data set” (2004).
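Method: 48-hour compound exposure of cells in 96-well plates, five concentrations, linear interpolation of endpoints. GI50 is the concentration that inhibits growth by half.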 Calls of active or inactive are those of the source. Cut-off read from the data, not from the text of the source: active = GI50 up to about 1.1 µM and inactive = higher.

Assays:
Assay in all cases: inhibition of tumour cell growth, NCI panel, 48 h
[1] = tested on: SK-OV-3
[2] = tested on: MDA-MB-435
[3] = tested on: T47D
[4] = tested on: SK-MEL-2
[5] = tested on: LOX IMVI
[6] = tested on: SNB-75
[7] = tested on: HT-29
[8] = tested on: HCT-116
[9] = tested on: COLO 205
[10] = tested on: OVCAR-8
[11] = tested on: KM-20L2
[12] = tested on: ACHN
[13] = tested on: SK-MEL-28
[14] = tested on: NCI-H23
[15] = tested on: UACC-257
[16] = tested on: HCC 2998
[17] = tested on: U-251
[18] = tested on: A498
[19] = tested on: HCT-15
[20] = tested on: K562
[21] = tested on: DMS-114
[22] = tested on: DLD-1
[23] = tested on: RXF 393
[24] = tested on: NCI-H226
[25] = tested on: SN12C
[26] = tested on: RPMI-8226
[27] = tested on: MOLT-4
[28] = tested on: HL-60
[29] = tested on: A549
[30] = tested on: MCF7
[31] = tested on: CAKI-1
[32] = tested on: M14
[33] = tested on: Hs-578T
[34] = tested on: UO-31
[35] = tested on: IGROV-1
[36] = tested on: HOP-62
[37] = tested on: SF-268
[38] = tested on: UACC-62
[39] = tested on: DMS-273
[40] = tested on: SF-539
[41] = tested on: OVCAR-4
[42] = tested on: LXFL 529
[43] = tested on: HOP-92
[44] = tested on: SF-295
[45] = tested on: SNB-78
[46] = tested on: TK-10
[47] = tested on: SK-MEL-5
[48] = tested on: OVCAR-3
[49] = tested on: Malme-3M
[50] = tested on: 786-0
[51] = tested on: BT-549
[52] = tested on: SR
[53] = tested on: NCI-H522
[54] = tested on: HOP-18
[55] = tested on: EKVX
[56] = tested on: KM12
[57] = tested on: SW-620
[58] = tested on: M19-MEL
[59] = tested on: NCI-H460
[60] = tested on: DU-145
[61] = tested on: CCRF-CEM
[62] = tested on: MDA-MB-231
[63] = tested on: SNB-19
[64] = tested on: OVCAR-5

## COc1cc2c(c(OC)c1OC)-c1ccc(OC)c(=O)cc1C(NC(=O)c1ccc(N=[N+]=[N-])cc1)CC2 (stereo not given)
[1]
  GI50: 0.0292 µM (active)
[2]
  GI50: 0.0134 µM (active)
[3]
  GI50: > 100 µM (inactive)
[4]
  GI50: 0.0327 µM (active)
[5]
  GI50: 0.0423 µM (active)
[6]
  GI50: 0.766 µM (active)
[7]
  GI50: 0.0288 µM (active)
[8]
  GI50: 0.0334 µM (active)
[9]
  GI50: 0.021 µM (active)
[10]
  GI50: 0.0335 µM (active)
[11]
  GI50: 0.0188 µM (active)
[12]
  GI50: 0.0809 µM (active)
[13]
  GI50: 0.789 µM (active)
[14]
  GI50: 0.0327 µM (active)
[15]
  GI50: 0.615 µM (active)
[16]
  GI50: 0.0215 µM (active)
[17]
  GI50: 0.0307 µM (active)
[18]
  GI50: 0.0186 µM (active)
[19]
  GI50: 0.111 µM
[20]
  GI50: 0.0246 µM (active)
[21]
  GI50: 0.0257 µM (active)
[22]
  GI50: 0.0413 µM (active)
[23]
  GI50: 0.0185 µM (active)
[24]
  GI50: 0.451 µM (active)
[25]
  GI50: 0.0514 µM (active)
[26]
  GI50: 0.0359 µM (active)
[27]
  GI50: 0.0411 µM (active)
[28]
  GI50: 0.0272 µM (active)
[29]
  GI50: 0.0408 µM (active)
[30]
  GI50: 0.0144 µM (active)
[31]
  GI50: 0.032 µM (active)
[32]
  GI50: 0.037 µM (active)
[33]
  GI50: 0.084 µM (active)
[34]
  GI50: 9.08 µM (inactive)
[35]
  GI50: 0.0466 µM (active)
[36]
  GI50: 0.0413 µM (active)
[37]
  GI50: 0.0557 µM (active)
[38]
  GI50: 0.0275 µM (active)
[39]
  GI50: 0.0244 µM (active)
[40]
  GI50: 0.0238 µM (active)
[41]
  GI50: 1.24 µM (inactive)
[42]
  GI50: 0.0372 µM (active)
[43]
  GI50: 0.0396 µM (active)
[44]
  GI50: 0.0246 µM (active)
[45]
  GI50: 0.03 µM (active)
[46]
  GI50: 13 µM (inactive)
[47]
  GI50: 0.0264 µM (active)
[48]
  GI50: 0.0255 µM (active)
[49]
  GI50: 0.608 µM (active)
[50]
  GI50: 0.0446 µM (active)
[51]
  GI50: 0.0507 µM (active)
[52]
  GI50: 0.0435 µM (active)
[53]
  GI50: 0.0175 µM (active)
[54]
  GI50: > 84.9 µM (inactive)
[55]
  GI50: 0.132 µM (active)
[56]
  GI50: 0.0234 µM (active)
[57]
  GI50: 0.0312 µM (active)
[58]
  GI50: 0.0581 µM (active)
[59]
  GI50: 0.031 µM (active)
[60]
  GI50: 0.0378 µM (active)
[61]
  GI50: 0.0316 µM (active)
[62]
  GI50: 0.0352 µM (active)
[63]
  GI50: 0.0767 µM (active)

## CSc1nc(O)c2cn(Cc3ccccc3)nc2n1
[1]
  GI50: > 100 µM (inactive)
[4]
  GI50: > 100 µM (inactive)
[5]
  GI50: > 100 µM (inactive)
[6]
  GI50: > 86.1 µM (inactive)
[7]
  GI50: 98.2 µM (inactive)
[8]
  GI50: > 100 µM (inactive)
[9]
  GI50: > 100 µM (inactive)
[10]
  GI50: > 100 µM (inactive)
[11]
  GI50: > 67.5 µM (inactive)
[12]
  GI50: > 76.4 µM (inactive)
[13]
  GI50: > 100 µM (inactive)
[14]
  GI50: > 100 µM (inactive)
[15]
  GI50: > 100 µM (inactive)
[16]
  GI50: > 100 µM (inactive)
[17]
  GI50: > 100 µM (inactive)
[18]
  GI50: > 100 µM (inactive)
[19]
  GI50: > 75.3 µM
[20]
  GI50: 77.8 µM (inactive)
[21]
  GI50: > 100 µM (inactive)
[22]
  GI50: > 70.5 µM (inactive)
[23]
  GI50: > 91 µM (inactive)
[24]
  GI50: > 100 µM (inactive)
[64]
  GI50: > 100 µM (inactive)
[25]
  GI50: > 100 µM (inactive)
[26]
  GI50: > 100 µM (inactive)
[27]
  GI50: > 100 µM (inactive)
[28]
  GI50: > 100 µM (inactive)
[29]
  GI50: > 100 µM (inactive)
[31]
  GI50: 41 µM (inactive)
[32]
  GI50: > 91.6 µM (inactive)
[34]
  GI50: > 87.3 µM (inactive)
[35]
  GI50: > 100 µM (inactive)
[36]
  GI50: > 100 µM (inactive)
[37]
  GI50: > 100 µM (inactive)
[38]
  GI50: > 100 µM (inactive)
[39]
  GI50: > 100 µM (inactive)
[40]
  GI50: > 100 µM (inactive)
[41]
  GI50: > 100 µM (inactive)
[42]
  GI50: 58.6 µM (inactive)
[43]
  GI50: 71.6 µM (inactive)
[44]
  GI50: > 100 µM (inactive)
[45]
  GI50: > 100 µM (inactive)
[46]
  GI50: > 61.7 µM (inactive)
[47]
  GI50: > 100 µM (inactive)
[48]
  GI50: > 100 µM (inactive)
[49]
  GI50: > 100 µM (inactive)
[50]
  GI50: > 100 µM (inactive)
[52]
  GI50: > 100 µM (inactive)
[53]
  GI50: > 100 µM (inactive)
[54]
  GI50: > 100 µM (inactive)
[55]
  GI50: > 100 µM (inactive)
[56]
  GI50: > 100 µM (inactive)
[57]
  GI50: > 100 µM (inactive)
[58]
  GI50: > 100 µM (inactive)
[59]
  GI50: > 100 µM (inactive)
[61]
  GI50: 44 µM (inactive)
[63]
  GI50: > 100 µM (inactive)
